Assay results published in ChEMBL document CHEMBL1671764, “In vitro and in vivo activities of LCB01-0371, a new oxazolidinone” (2010).
The source made the active and inactive calls.

How the values were obtained:
[1] = tested on: Streptococcus pyogenes; assay: Antibacterial activity against 10^4 to 10^5 CFU Streptococcus pyogenes after 18 hrs by CLSI 2-fold agar dilution method; format: functional
[2] = tested on: Staphylococcus aureus; assay: Antibacterial activity against 1 x 10^8 CFU methicillin-resistant Staphylococcus aureus p125 after 18 hrs by CLSI 2-fold agar dilution method; format: functional; settings: p125, 18 h
[3] = tested on: Staphylococcus aureus; assay: Antibacterial activity against methicillin-susceptible Staphylococcus aureus Giorgio assessed as bacterial regrowth at 4 times MIC after 24 hrs by […] method; format: functional, organism-based
[4] = tested on: Staphylococcus aureus; assay: Antibacterial activity against 10^4 to 10^5 CFU methicillin-susceptible Staphylococcus aureus after 18 hrs by CLSI 2-fold agar dilution method; format: functional
[5] = tested on: Staphylococcus aureus; assay: Antibacterial activity against methicillin-resistant Staphylococcus aureus p125 assessed as bacteriostatic at 2 times MIC after 24 hrs by […] method; format: functional, organism-based
[6] = tested on: Staphylococcus aureus; assay: Antibacterial activity against methicillin-resistant Staphylococcus aureus p125 assessed as bacterial regrowth at 4 times MIC after 24 hrs by […] method; format: functional, organism-based
[7] = tested on: Staphylococcus aureus; assay: Antibacterial activity against methicillin-resistant Staphylococcus aureus p125 assessed as bacteriostatic at 8 times MIC after 24 hrs by […] method; format: functional, organism-based
[8] = tested on: Staphylococcus aureus; assay: Antibacterial activity against methicillin-susceptible Staphylococcus aureus Giorgio assessed as bacteriostatic at 2 times MIC after 24 hrs by […] method; format: functional, organism-based
[9] = tested on: Staphylococcus aureus; assay: Antibacterial activity against methicillin-resistant Staphylococcus aureus p125 assessed as bacteriostatic at 4 times MIC after 24 hrs by […] method; format: functional, organism-based
[10] = tested on: Haemophilus influenzae; assay: Antibacterial activity against 10^4 to 10^5 CFU Haemophilus influenzae after 18 hrs by CLSI 2-fold agar dilution method; format: functional
[11] = tested on: Streptococcus pneumoniae; assay: Antibacterial activity against 10^4 to 10^5 CFU Streptococcus pneumoniae after 18 hrs by CLSI 2-fold agar dilution method; format: functional
[12] = tested on: Enterococcus faecium; assay: Antibacterial activity against 10^4 to 10^5 CFU Enterococcus faecium after 18 hrs by CLSI 2-fold agar dilution method; format: functional
[13] = tested on: Staphylococcus aureus; assay: Antibacterial activity against methicillin-resistant Staphylococcus aureus p125 assessed as bacterial regrowth at 8 times MIC after 24 hrs by […] method; format: functional, organism-based
[14] = tested on: Moraxella catarrhalis; assay: Antibacterial activity against 10^4 to 10^5 CFU Moraxella catarrhalis after 18 hrs by CLSI 2-fold agar dilution method; format: functional
[15] = tested on: Enterococcus; assay: Antibacterial activity against 10^4 to 10^5 CFU vancomycin-resistant Enterococcus after 18 hrs by CLSI 2-fold agar dilution method; format: functional
[16] = tested on: Staphylococcus aureus; assay: Antibacterial activity against 1 x 10^7 CFU methicillin-susceptible Staphylococcus aureus Giorgio after 18 hrs by CLSI 2-fold agar dilution method; format: functional
[17] = tested on: Staphylococcus; assay: Antibacterial activity against 10^4 to 10^5 CFU methicillin-susceptible coagulase-negative Staphylococcus after 18 hrs by CLSI 2-fold agar dilution method; format: functional
[18] = tested on: Staphylococcus aureus; assay: Antibacterial activity against 10^4 to 10^5 CFU methicillin-resistant Staphylococcus aureus after 18 hrs by CLSI 2-fold agar dilution method; format: functional
[19] = tested on: Streptococcus pneumoniae; assay: Antibacterial activity against 1 x 10^4 CFU Streptococcus pneumoniae ATCC 6305 after 18 hrs by CLSI 2-fold agar dilution method; format: functional; settings: ATCC 6305, 18 h
[20] = tested on: Staphylococcus aureus; assay: Antibacterial activity against methicillin-resistant Staphylococcus aureus p125 assessed as bacteriostatic at MIC after 24 hrs by […] method; format: functional, organism-based
[21] = tested on: Enterococcus faecalis; assay: Antibacterial activity against 2 x 10^8 CFU Enterococcus faecalis u810 after 18 hrs by CLSI 2-fold agar dilution method; format: functional; settings: u810, 18 h
[22] = tested on: Staphylococcus aureus; assay: Antibacterial activity against methicillin-susceptible Staphylococcus aureus Giorgio assessed as bacteriostatic at 4 times MIC after 24 hrs by […] method; format: functional, organism-based
[23] = tested on: Staphylococcus aureus; assay: Antibacterial activity against methicillin-susceptible Staphylococcus aureus Giorgio assessed as bacteriostatic at 8 times MIC after 24 hrs by […] method; format: functional, organism-based
[24] = tested on: Staphylococcus; assay: Antibacterial activity against 10^4 to 10^5 CFU methicillin-resistant coagulase-negative Staphylococcus after 18 hrs by CLSI 2-fold agar dilution method; format: functional
[25] = tested on: Haemophilus influenzae; assay: Antibacterial activity against 7.5 x 10^8 CFU Haemophilus influenzae hd2 after 18 hrs by CLSI 2-fold agar dilution method; format: functional; settings: hd2, 18 h
[26] = tested on: Staphylococcus aureus; assay: Antibacterial activity against methicillin-susceptible Staphylococcus aureus Giorgio assessed as bacterial regrowth at 8 times MIC after 24 hrs by […] method; format: functional, organism-based
[27] = tested on: Enterococcus faecalis; assay: Antibacterial activity against 10^4 to 10^5 CFU Enterococcus faecalis after 18 hrs by CLSI 2-fold agar dilution method; format: functional
[28] = tested on: Staphylococcus aureus; assay: Antibacterial activity against methicillin-susceptible Staphylococcus aureus Giorgio assessed as bacteriostatic at MIC after 24 hrs by […] method; format: functional, organism-based
[29] = tested on: Haemophilus influenzae; assay: Antibacterial activity against 7.5 x 10^8 CFU Haemophilus influenzae hd2 infected in ICR mouse systemic infection model assessed as mouse protection administered orally twice after 1 and 4 hrs post infection measured after 48 hrs; format: functional

CN1CCN(c2ccc(N3C[C@H](CO)OC3=O)cc2F)C=N1 [DELPAZOLID]
2 µg/mL: MIC90 [1] | MIC90 [4] | MIC50 [12] | MIC90 [12] | MIC90 [18] | MIC [21] | MIC50 [27] | MIC90 [27]
active: Activity [3] | Activity [5] | Activity [6] | Activity [7] | Activity [8] | Activity [9] | Activity [13] | Activity [20] | Activity [22] | Activity [23] | Activity [26] | Activity [28]
0.5 µg/mL: MIC50 [11] | MIC [17] | MIC50 [17] | MIC90 [17] | MIC [19] | MIC [24] | MIC50 [24] | MIC90 [24]
4 µg/mL: MIC50 [14]
1 µg/mL: MIC50 [1] | MIC [2] | MIC50 [4] | MIC90 [11] | MIC [15] | MIC50 [15] | MIC90 [15] | MIC [16] | MIC50 [18]
8 µg/mL: MIC50 [10] | MIC90 [10] | MIC90 [14] | MIC [25]

CC[C@H]1OC(=O)[C@H](C)[C@@H](O[C@H]2C[C@@](C)(OC)[C@@H](O)[C@H](C)O2)[C@H](C)[C@@H](O[C@@H]2O[C@H](C)C[C@H](N(C)C)[C@H]2O)[C@](C)(O)C[C@@H](C)C(=O)[C@H](C)[C@@H](O)[C@]1(C)O [ERYTHROMYCIN]
0.25 µg/mL: MIC50 [4] | MIC50 [17]
0.06 µg/mL: MIC50 [1]
2 µg/mL: MIC90 [1]
64 µg/mL: MIC [10] | MIC50 [10] | MIC50 [11]
> 64 µg/mL: MIC90 [4] | MIC90 [10] | MIC90 [11] | MIC50 [12] | MIC90 [12] | MIC50 [15] | MIC90 [15] | MIC90 [17] | MIC50 [18] | MIC50 [24] | MIC50 [27] | MIC90 [27]

CO/N=C1\CN(c2nc3c(cc2F)c(=O)c(C(=O)O)cn3C2CC2)CC1CN (stereo not given) [GEMIFLOXACIN]
< 0.008 µg/mL: MIC50 [14] | MIC90 [14]
0.5 µg/mL: MIC50 [15] | MIC90 [17] | MIC50 [24]
0.125 µg/mL: MIC50 [27]
1 µg/mL: MIC90 [24]
0.03 µg/mL: MIC50 [1] | MIC50 [11]
2 µg/mL: MIC50 [12] | MIC90 [15] | MIC50 [18]
0.008 µg/mL: MIC [10] | MIC50 [10] | MIC90 [10]
0.015 µg/mL: MIC50 [4] | MIC50 [17]
64 µg/mL: MIC90 [18]
0.06 µg/mL: MIC90 [1] | MIC90 [4] | MIC90 [11]
4 µg/mL: MIC90 [27]
16 µg/mL: MIC90 [12]

CC(=O)NC[C@H]1CN(c2ccc(N3CCOCC3)c(F)c2)C(=O)O1 [LINEZOLID]
1 µg/mL: MIC50 [11] | MIC90 [11] | MIC [17] | MIC50 [17] | MIC [24] | MIC50 [24] | MIC90 [24]
2 µg/mL: MIC50 [1] | MIC90 [1] | MIC50 [4] | MIC90 [4] | MIC50 [12] | MIC90 [12] | MIC [15] | MIC50 [15] | MIC90 [15] | MIC90 [17] | MIC50 [18] | MIC90 [18] | MIC50 [27] | MIC90 [27]
8 µg/mL: MIC50 [14]
16 µg/mL: MIC [29] | MIC90 [14]

Cc1onc(-c2ccccc2)c1C(=O)N[C@@H]1C(=O)N2[C@@H]1SC(C)(C)[C@@H]2C(=O)O [OXACILLIN]
8 µg/mL: MIC90 [1] | MIC50 [11]
> 64 µg/mL: MIC50 [12] | MIC90 [12] | MIC50 [15] | MIC90 [15] | MIC50 [18] | MIC90 [18] | MIC50 [24] | MIC90 [24] | MIC90 [27]
0.015 µg/mL: MIC90 [10]
0.5 µg/mL: MIC50 [1] | MIC90 [4]
0.25 µg/mL: MIC50 [4]
0.06 µg/mL: MIC50 [14] | MIC90 [14]
16 µg/mL: MIC90 [11] | MIC50 [27]
0.125 µg/mL: MIC50 [17]
< 0.008 µg/mL: MIC50 [10]
1 µg/mL: MIC90 [17]

CN[C@H](CC(C)C)C(=O)N[C@H]1C(=O)N[C@@H](CC(N)=O)C(=O)N[C@H]2C(=O)N[C@H]3C(=O)N[C@H](C(=O)N[C@H](C(=O)O)c4cc(O)cc(O)c4-c4cc3ccc4O)[C@H](O)c3ccc(c(Cl)c3)Oc3cc2cc(c3O[C@@H]2O[C@H](CO)[C@@H](O)[C@H](O)[C@H]2O[C@H]2C[C@](C)(N)[C@H](O)[C@H](C)O2)Oc2ccc(cc2Cl)[C@H]1O [VANCOMYCIN]
1 µg/mL: MIC50 [1] | MIC90 [1] | MIC50 [4] | MIC90 [4] | MIC90 [11] | MIC50 [12] | MIC50 [18]
> 64 µg/mL: MIC50 [10] | MIC90 [10] | MIC50 [15] | MIC90 [15]
4 µg/mL: MIC90 [17] | MIC90 [27]
0.5 µg/mL: MIC50 [11]
2 µg/mL: MIC90 [12] | MIC50 [17] | MIC90 [18] | MIC50 [24] | MIC90 [24] | MIC50 [27]
